Where “and” joins values, the source holds several entries; their conditions need not be identical. Equal entries are not always repeated. Marks after values point to notes of the source that are not given here.
How the values were obtained:
[1] = tested on: mouse; conditions: source not given; cited from earlier work
[2] = tested on: pregnant SWV mice; assay: Maternal body weight and weight gain, teratogenicity study; assay type: in vivo, mouse; conditions: mean ± SD
[3] = tested on: SWV mouse fetuses; assay: Skeletal examination of fetuses; assay type: in vivo
[4] = tested on: pregnant SWV mice; assay: Pregnancy outcomes; assay type: in vivo, mouse
[5] = tested on: SWV mouse fetuses; conditions: for Overall teratogenicity under the experimental conditions: SWV mice, p.o. GD 4–17, doses as fractions of LD50
[6] = tested on: NMRI mice; conditions: injected on GD 8 with 3 mmol/kg; cited from earlier work
[7] = 1/6.54 of LD50 (RIS 9.6, OLA 32.1, VCD 152.8 mg/kg) p.o. GD 4–17
[8] = 1/13.1 of LD50 (OLA 16.05 mg/kg) p.o. GD 4–17
[9] = 1/6.54 of LD50 (RIS 9.6, OLA 32.1, VCD 152.8 mg/kg) p.o. GD 4–17, mean ± SD
[10] = 1/4.36 of LD50 (RIS 14.5, VCD 229.2 mg/kg) p.o. GD 4–17

Cc1cc2c(s1)Nc1ccccc1N=C2N1CCN(C)CC1 [OLA, 2-methyl-4-(4-methyl-1-piperazinyl)-10H-thieno(2,3-b)([1],[5])benzodiazepine]
LD50 mouse, oral [1]: 210 mg/kg
Dams net weight gain [2, 7]: 5.6 ± 2.0 ^a grams
Dams weight GD 18 [2, 7]: 34.9 grams and 34.9 ± 4.0 ^a grams
Dams weight gain [2, 7]: 8.0 ± 3.5 ^a grams
Dams net weight gain [2, 8]: 8.8 ± 1.8 grams
Dams weight GD 18 [2, 8]: 46.5 ± 3.6 grams
Dams weight gain [2, 8]: 18.7 ± 3.8 grams
All vertebra: incomplete ossification, affected fetuses [3, 7]: 3
All vertebra: incomplete ossification, affected litters [3, 7]: 1
Cervical vertebra: ossified fusion of centrums, affected fetuses [3, 7]: 0
Fetuses with skeletal abnormalities, % [3, 7]: 79.2%
Fibula: bent, affected fetuses [3, 7]: 0
Metacarpal: absent ossification, affected fetuses [3, 7]: 12
Metacarpal: absent ossification, affected litters [3, 7]: 8
Metacarpal: incomplete ossification, affected fetuses [3, 7]: 6
Metacarpal: incomplete ossification, affected litters [3, 7]: 3
Metatarsal: absent ossification, affected fetuses [3, 7]: 14
Metatarsal: absent ossification, affected litters [3, 7]: 9
Metatarsal: incomplete ossification, affected fetuses [3, 7]: 4
Metatarsal: incomplete ossification, affected litters [3, 7]: 3
Ribs: absent 13th, affected fetuses [3, 7]: 1/1
Ribs: absent 13th, affected litters [3, 7]: 1/1
Ribs: branched, affected fetuses [3, 7]: 0
Skull: incomplete ossification, affected fetuses [3, 7]: 1/1
Skull: incomplete ossification, affected litters [3, 7]: 1/1
Skull: interparietal incomplete ossification, affected fetuses [3, 7]: 1/1
Skull: interparietal incomplete ossification, affected litters [3, 7]: 1/1
Skull: parietal incomplete ossification, affected fetuses [3, 7]: 0
Skull: supraoccipital incomplete ossification, affected fetuses [3, 7]: 1/1
Skull: supraoccipital incomplete ossification, affected litters [3, 7]: 1/1
Sternebra: absent ossification, affected fetuses [3, 7]: 8
Sternebra: absent ossification, affected litters [3, 7]: 5
Sternebra: incomplete ossification, affected fetuses [3, 7]: 8
Sternebra: incomplete ossification, affected litters [3, 7]: 7
Sternebra: misaligned, affected fetuses [3, 7]: 0
Sternebra: misshapen, affected fetuses [3, 7]: 0
Whole skeletal system: incomplete ossification, affected fetuses [3, 7]: 7
Whole skeletal system: incomplete ossification, affected litters [3, 7]: 3
All vertebra: incomplete ossification, affected fetuses [3, 8]: 0
Cervical vertebra: ossified fusion of centrums, affected fetuses [3, 8]: 0
Fibula: bent, affected fetuses [3, 8]: 0
Metacarpal: absent ossification, affected fetuses [3, 8]: 1/1
Metacarpal: absent ossification, affected litters [3, 8]: 1/1
Metacarpal: incomplete ossification, affected fetuses [3, 8]: 47
Metacarpal: incomplete ossification, affected litters [3, 8]: 12
Metatarsal: absent ossification, affected fetuses [3, 8]: 8/8 ^b
Metatarsal: absent ossification, affected litters [3, 8]: 8/8 ^b
Metatarsal: incomplete ossification, affected fetuses [3, 8]: 20
Metatarsal: incomplete ossification, affected litters [3, 8]: 8
Ribs: absent 13th, affected fetuses [3, 8]: 0
Ribs: branched, affected fetuses [3, 8]: 0
Skull: incomplete ossification, affected fetuses [3, 8]: 0
Skull: interparietal incomplete ossification, affected fetuses [3, 8]: 4
Skull: interparietal incomplete ossification, affected litters [3, 8]: 3
Skull: parietal incomplete ossification, affected fetuses [3, 8]: 3
Skull: parietal incomplete ossification, affected litters [3, 8]: 2
Skull: supraoccipital incomplete ossification, affected fetuses [3, 8]: 1/1
Skull: supraoccipital incomplete ossification, affected litters [3, 8]: 1/1
Sternebra: absent ossification, affected fetuses [3, 8]: 4/4
Sternebra: absent ossification, affected litters [3, 8]: 4/4
Sternebra: incomplete ossification, affected fetuses [3, 8]: 25
Sternebra: incomplete ossification, affected litters [3, 8]: 11
Sternebra: misaligned, affected fetuses [3, 8]: 0
Sternebra: misshapen, affected fetuses [3, 8]: 0
Whole skeletal system: incomplete ossification, affected fetuses [3, 8]: 0
Fetus weight [4, 9]: 0.66 ± 0.09 ^a g
Resorptions/litter [4, 9]: 9.6 ± 3.9 ^a
Fetus weight ([4]; 1/13.1 of LD50 (OLA 16.05 mg/kg) p.o. GD 4–17, mean ± SD): 0.83 ± 0.10 ^a g
Embryos resorbed ([4]; 1/13.1 of LD50 (OLA 16.05 mg/kg, low dose) p.o. GD 4–17): 15%
Overall teratogenicity under the experimental conditions [5]: the most teratogenic of the three test drugs
Dilated brain ventricles, affected litters ([5]; female, SWV, mouse, in vivo): 2/2
Dilated renal pelvis, affected litters ([5]; female, SWV, mouse, in vivo): 2/2
Exencephaly, affected fetuses ([5]; female, SWV, mouse, in vivo): 0
Malposition stomach, affected fetuses ([5]; female, SWV, mouse, in vivo): 0
Right aortic arch, affected fetuses ([5]; female, SWV, mouse, in vivo): 0

Cc1nc2n(c(=O)c1CCN1CCC(c3noc4cc(F)ccc34)CC1)CCCC2 [RIS, 3-(2-(4-(6-fluoro-1,2-benzisoxazol-3-yl)piperidino)ethyl)-6,7,8,9-tetrahydro-2-methyl-4H-pyrido(1,2-a)pyrimidin-4-one]
LD50 mouse, oral [1]: 63 mg/kg
Dams net weight gain [2, 10]: 7.4 ± 2.3 ^a grams
Dams weight GD 18 [2, 10]: 47.1 ± 3.2 grams
Dams weight gain [2, 10]: 18.1 grams and 18.1 ± 2.5 ^a grams
Dams net weight gain [2, 7]: 7.5 ± 2.0 grams
Dams weight GD 18 [2, 7]: 46.9 ± 4.8 grams
Dams weight gain [2, 7]: 19.4 ± 4.2 grams
All vertebra: incomplete ossification, affected fetuses [3, 10]: 0
Cervical vertebra: ossified fusion of centrums, affected fetuses [3, 10]: 0
Fetuses with skeletal abnormalities, % [3, 10]: 20.1%
Fibula: bent, affected fetuses [3, 10]: 0
Metacarpal: absent ossification, affected fetuses [3, 10]: 6
Metacarpal: absent ossification, affected litters [3, 10]: 1
Metacarpal: incomplete ossification, affected fetuses [3, 10]: 0
Metatarsal: absent ossification, affected fetuses [3, 10]: 6
Metatarsal: absent ossification, affected litters [3, 10]: 1
Metatarsal: incomplete ossification, affected fetuses [3, 10]: 0
Ribs: absent 13th, affected fetuses [3, 10]: 0
Ribs: branched, affected fetuses [3, 10]: 0
Skull: incomplete ossification, affected fetuses [3, 10]: 6
Skull: incomplete ossification, affected litters [3, 10]: 1
Skull: interparietal incomplete ossification, affected fetuses [3, 10]: 0
Skull: parietal incomplete ossification, affected fetuses [3, 10]: 1/1
Skull: parietal incomplete ossification, affected litters [3, 10]: 1/1
Skull: supraoccipital incomplete ossification, affected fetuses [3, 10]: 0
Sternebra: absent ossification, affected fetuses [3, 10]: 7
Sternebra: absent ossification, affected litters [3, 10]: 2
Sternebra: incomplete ossification, affected fetuses [3, 10]: 13
Sternebra: incomplete ossification, affected litters [3, 10]: 9
Sternebra: misaligned, affected fetuses [3, 10]: 0
Sternebra: misshapen, affected fetuses [3, 10]: 1/1
Sternebra: misshapen, affected litters [3, 10]: 1/1
Whole skeletal system: incomplete ossification, affected fetuses [3, 10]: 2
Whole skeletal system: incomplete ossification, affected litters [3, 10]: 1
All vertebra: incomplete ossification, affected fetuses [3, 7]: 0
Cervical vertebra: ossified fusion of centrums, affected fetuses [3, 7]: 0
Fetuses with skeletal abnormalities, % [3, 7]: 10.8%
Fibula: bent, affected fetuses [3, 7]: 0
Metacarpal: absent ossification, affected fetuses [3, 7]: 0
Metacarpal: incomplete ossification, affected fetuses [3, 7]: 1/1
Metacarpal: incomplete ossification, affected litters [3, 7]: 1/1
Metatarsal: absent ossification, affected fetuses [3, 7]: 0
Metatarsal: incomplete ossification, affected fetuses [3, 7]: 1/1
Metatarsal: incomplete ossification, affected litters [3, 7]: 1/1
Ribs: absent 13th, affected fetuses [3, 7]: 0
Ribs: branched, affected fetuses [3, 7]: 0
Skull: incomplete ossification, affected fetuses [3, 7]: 3
Skull: incomplete ossification, affected litters [3, 7]: 2
Skull: interparietal incomplete ossification, affected fetuses [3, 7]: 0
Skull: parietal incomplete ossification, affected fetuses [3, 7]: 0
Skull: supraoccipital incomplete ossification, affected fetuses [3, 7]: 0
Sternebra: absent ossification, affected fetuses [3, 7]: 0
Sternebra: incomplete ossification, affected fetuses [3, 7]: 5
Sternebra: incomplete ossification, affected litters [3, 7]: 4
Sternebra: misaligned, affected fetuses [3, 7]: 0
Sternebra: misshapen, affected fetuses [3, 7]: 3/3
Sternebra: misshapen, affected litters [3, 7]: 3/3
Whole skeletal system: incomplete ossification, affected fetuses [3, 7]: 1/1
Whole skeletal system: incomplete ossification, affected litters [3, 7]: 1/1
Resorption rate ([4]; 1/4.36 of LD50 (RIS 14.5 mg/kg) p.o. GD 4–17): 12.4%
Fetus weight ([4]; 1/4.36 of LD50 (RIS 14.5, VCD 229.2 mg/kg) p.o. GD 4–17, mean ± SD): 0.83 ± 0.05 ^a g
Fetus weight [4, 9]: 0.89 ± 0.06 g
Overall teratogenicity under the experimental conditions [5]: maternal-, embryo-, and fetotoxic
Cleft palate, affected fetuses ([5]; female, SWV, mouse, in vivo): 8
Dilated brain ventricles, affected litters ([5]; female, SWV, mouse, in vivo): 2/2
Exencephaly, affected litters ([5]; female, SWV, mouse, in vivo): 1/1
Fetuses with external abnormalities, % ([5]; female, SWV, mouse, in vivo): 0.4%
Malposition stomach, affected fetuses ([5]; female, SWV, mouse, in vivo): 0
Right aortic arch, affected fetuses ([5]; female, SWV, mouse, in vivo): 0

CCCC(CCC)C(=O)O [VPA, valproic acid]
Exposed fetuses with exencephaly [6]: 52%
Resorption rate [6]: 53%

From PMC4631615 (Bipolar disorders, 2015)
